Measured values taken from patent publication US9394338B2, “Glutathione analogs and uses thereof” (REGENTS OF THE UNIVERSITY OF MINNESOTA, priority 2011, dated 2016).

Assays:
GSH uptake transporters = experiment: Inhibition of [3H]-GSH uptake; type: cell-based, human; details: 100 nM [3H]-GSH; 1 μM, 100 nM and 10 nM compound
Procedure: Inhibition of Glutathione Uptake by Ψ-GS. The uptake experiment was performed under conditions described previously. Briefly, the cells were seeded in 24-well plates. After an overnight incubation, the cells were treated with 100 nM concentration of [^3H]-GSH in uptake buffer (128 mM NaCl, 4.73 mM KCl, 1.25 mM CaCl2, 1.25 mM MgSO4, and 5 mM HEPES, pH =7.4) in the presence or absence of Ψ-GSH at concentrations of 10, 100 and 1000 nM at 37° C. under 5% CO2 for 30 min. At the end of incubation, the cellular uptake was terminated by washing three times with ice-cold PBS. Any remaining buffer was aspirated, and the cells were lysed with 1 ml of warm 0.1% SDS/0.1 N NaOH solution for a minimum of 45 min. Intracellular levels of radioactive GSH were determined using liquid scintillation counting. All resulting levels of GSH uptake were normalized to the total protein in each well using a BCA protein assay. All uptake experiments were performed in triplicate and statistically significant differences in uptake were evaluated using Graphpad Prism 5.1 (Graphpad, La Jolla, Calif.) using a one-way ANOVA followed by a Dunnett's post hoc test with a false discovery rate of 0.05.

APP/PS1 mice [1] = experiment: Immunohistochemistry of Aβ plaques in brain; type: in vivo
Procedure: (§1) Efficacy Study Design. To determine the effect of intraperitoneal and oral Ψ-GSH treatment, the study was divided in four groups (10 mice/group). 1. APP/PS1 mice-vehicle control, 2. APP/PS1 mice-Ψ-GSH i.p. 500 mg/kg, 3. APP/PS1 mice-Ψ-GSH oral 500 mg/kg, 4. Non-transgenic wild type mice-vehicle control. All the animals in the above-said groups were treated with saline or Ψ-GSH three times a week for 12 weeks, starting at the age of three to four months. Eleven weeks after the start of the treatment, the animals were tested in the Morris water maze, and twelve weeks after the start of the treatment, the animals were sacrificed for histopathological analysis.
Immunohistochemistry. Mice were anesthetized, and their brains were removed, cut sagittaly. Following post-fixation of right hemisphere in Zamboni's fixative (4% paraformaldehyde and 15% picric acid in 0.25 M sodium phosphate, pH 7.5) for 48 h before being cryopreserved in a 30% (wt/vol) sucrose in phosphate-buffered saline solution. Brains were then were embedded in O.C.T. Tissue Tek Compound (Miles Scientific) and were cryosectioned at 10 μm thickness for immunohistochemistry, mounted on Superfrost™ microscope slides (Erie Scientific, Portsmouth N.H.) and stored at […] until their utilization.
The brain sections were stained with a primary antibody against 0-amyloid peptide (Cell signaling, Cat. #2454) at a dilution of 1:200 in PBS. […]

APP/PS1 mice [2] = experiment: Amyloid-β1-42 ELISA of brain homogenate; type: in vivo
Procedure: as §1
Amyloid-β1-42 ELISA. Total Aβ^1-42 in the brain was quantified by sandwich ELISA (Invitrogen, Carlsbad, Calif.) according to the manufacturer's instructions. Wild type and transgenic Alzheimer's mice brains were Dounce homogenized in phosphate buffered saline (PBS), pH 7.2, containing a mixture of protease inhibitors. Brain homogenates were centrifuged and supernatants were assayed for soluble Aβ^1-42 per manufacturers' protocols. […] The concentration of both PBS soluble and insoluble (guanidine soluble) Aβ^1-42 was calculated from a standard curve of human Aβ^1-42 and was normalized to the weight of the tissue employed.

SMILES: N[C@@H](CNC(=O)N[C@@H](CS)C(=O)NCC(=O)O)C(=O)O [Ψ-GSH, γ-Gla-Cys-Gly-OH]
- [3H]-GSH uptake by SH-SY-5Y cells (GSH uptake transporters): inhibited in a dose-dependent manner
- number and size of Aβ plaques (APP/PS1 mice [1]; i.p.): drastically reduced
- Aβ plaques relative to controls (APP/PS1 mice [1]; oral): modest decrease
- insoluble Aβ1-42 in brain (APP/PS1 mice [2]; i.p.): 45.4±6.01 % of vehicle-treated APP/PS1 mice
- insoluble Aβ1-42 concentration in brain (APP/PS1 mice [2]; oral): 90.80±6.72 % of vehicle treated APP/PS1 mice
